According to US20090004106A1, “Radioligands for the 5 -Ht1b Receptor” (priority 2006, published 2009):

Test system: 5-HT1B receptor
Experiment: PET measurements in monkeys (radioligand brain uptake and 5-HT1B receptor binding)
Assay type: in vivo, Cynomolgus monkey
Procedure: Cynomolgus monkey can be used to determine the suitability of [^11C] labeled raidoligands as a radioligand for PET-determination of 5HT^1B-receptor binding and occupancy. Anaesthesia can be induced and maintained by repeated intramuscular injections of a mixture of ketamine (3-4 mg/kg per h Ketalar, Parke-Davis) and xylazine hydrochloride (1-2 mg/kg per h Rompun® Vet., Bayer, Sweden) for the duration of each measurement. A fixation device can be used for the positioning of the monkey head during the PET-measurements. Body temperature can be controlled by Bair Hugger—Model 505 (Arizant Healthcare Inc, MN).
Radioactivity in the brain can be measured with the Siemens ECAT Exact HR47 system that can be used in the three-dimensional model. The system covers an axial distance of 15 cm. The transaxial resolution of the reconstructed images is about 3.8 mm full width at half-maximum (FWHM) and the axial resolution 4.0 mm FWHM. […]
In each PET-measurement a sterile physiological phosphate buffer (pH=7.4) solution containing about 1.4 mCi (50 MBq) of [^11C] labeled compound can be injected as a bolus into a sural vein during 2 s with simultaneous start of PET-data acquisition. Radioactivity in brain can be measured continuously for 93 minutes according to a pre-programmed series of 15 frames starting immediately after IV injection of [^11C] labeled compound. […]
During all PET measurements venous blood samples (about 0.5 ml) can be taken at 4 time points (at about 4, 15, 30 and 45 minutes) and plasma radioactivity concentration determined in a well counter, cross-calibrated with the camera. […]
The ROIs can be drawn on the PET summation images representing radioactivity measured from 9 minutes after intravenous injection to the end of the measurement. […] Radioactivity is calculated for the sequence of time frames, corrected for the radioactivity decay, and plotted versus time. For each region a time-activity curve can be generated and radioactivity expressed as nCi/ml. […]

Substance: [^11C] 8-(4-methylpiperazin-1-yl)-5-methylchrom-2-en-4-one-2-(4-morpholinophenyl)carboxamide) [Example 3]
- specific binding to the areas of interest (primate brain PET, non specific defined as cerebellum): binds specifically to the areas of interest
- specific to non-specific ratios (primate brain PET, ratio of ROI to cerebellum (non specific defined as cerebellum)): high enough specific to non-specific ratios
- entry of radioligand into brain (primate brain, PET, IV bolus of [11C] labeled compound): rapidly entered the primate brain
